# According to patent publication US20240018145A1, “[…]-DEPENDENT EN[…] TREATING OR […]” (priority 2020, published 2024):
# Test system: FLU A (PR/8/34)
# Assay: Flu A Neuraminidase Antiviral Assay
# Format: cell-based
row,SMILES,EC50 [nM]
1,"CN1C(=O)c2c(O)c(=O)ccn2N2C1CCC(C)(CC(F)(F)F)C2c1ccccc1 (single isomer, unassigned) [Compound 71B, 7-hydroxy-2,5-dimethyl-1-phenyl-2-(2,2,2-trifluoroethyl)-1,2,3,4,4a,5-hexahydrodipyrido[1,2-b:2′,1′-f][1,2,4]triazine-6,8-dione]",18.5
2,"CN1C(=O)c2c(O)c(=O)ccn2N2C1CCC1(CCC(F)(F)CC1)C2c1ccccc1 (single isomer, unassigned) [Compound 72A, 4,4-difluoro-7′-hydroxy-5′-methyl-1′-phenyl-3′,4′,4a′,5′-tetrahydro-1′H-spiro[cyclohexane-1,2′-dipyrido[1,2-b:2′,1′-f][1,2,4]triazine]-6′,8′-dione]",> 810
3,"CN1C(=O)c2c(O)c(=O)ccn2N2C1CCC1(CCC(F)(F)CC1)C2c1ccccc1 (single isomer, unassigned) [Compound 72B, 4,4-difluoro-7′-hydroxy-5′-methyl-1′-phenyl-3′,4′,4a′,5′-tetrahydro-1′H-spiro[cyclohexane-1,2′-dipyrido[1,2-b:2′,1′-f][1,2,4]triazine]-6′,8′-dione]",3.8
4,"CN1C(=O)c2c(O)c(=O)ccn2N2C1CCC1(CCC(C(F)(F)F)CC1)C2c1ccccc1 (single isomer, unassigned) [Compound 73A, 7′-hydroxy-5′-methyl-1′-phenyl-4-(trifluoromethyl)-3′,4′,4a′,5′-tetrahydro-1′H-spiro[cyclohexane-1,2′-dipyrido[1,2-b:2′,1′-f][1,2,4]triazine]-6′,8′-dione]",> 810
5,"CN1C(=O)c2c(O)c(=O)ccn2N2C1CCC1(CCC(C(F)(F)F)CC1)C2c1ccccc1 (single isomer, unassigned) [Compound 73B, 7′-hydroxy-5′-methyl-1′-phenyl-4-(trifluoromethyl)-3′,4′,4a′,5′-tetrahydro-1′H-spiro[cyclohexane-1,2′-dipyrido[1,2-b:2′,1′-f][1,2,4]triazine]-6′,8′-dione]",> 810
6,"CN1C(=O)c2c(O)c(=O)ccn2N2C1CCC1(CCC(C(F)(F)F)CC1)C2c1ccccc1 (single isomer, unassigned) [Compound 73C, 7′-hydroxy-5′-methyl-1′-phenyl-4-(trifluoromethyl)-3′,4′,4a′,5′-tetrahydro-1′H-spiro[cyclohexane-1,2′-dipyrido[1,2-b:2′,1′-f][1,2,4]triazine]-6′,8′-dione]",105
7,"CN1C(=O)c2c(O)c(=O)ccn2N2C1CCC1(CCC(C(F)(F)F)CC1)C2c1ccccc1 (single isomer, unassigned) [Compound 73D, 7′-hydroxy-5′-methyl-1′-phenyl-4-(trifluoromethyl)-3′,4′,4a′,5′-tetrahydro-1′H-spiro[cyclohexane-1,2′-dipyrido[1,2-b:2′,1′-f][1,2,4]triazine]-6′,8′-dione]",6.6
8,"CN1C(=O)c2c(O)c(=O)ccn2N2C1CCC1(CC(F)(F)C1)C2c1ccccc1 (single isomer, unassigned) [Compound 74A, 3,3-difluoro-7′-hydroxy-5′-methyl-1′-phenyl-3′,4′,4a′,5′-tetrahydro-1′H-spiro[cyclobutane-1,2′-dipyrido[1,2-b:2′,1′-f][1,2,4]triazine]-6′,8′-dione]",> 810
9,"CN1C(=O)c2c(O)c(=O)ccn2N2C1CCC1(CC(F)(F)C1)C2c1ccccc1 (single isomer, unassigned) [Compound 74B, 3,3-difluoro-7′-hydroxy-5′-methyl-1′-phenyl-3′,4′,4a′,5′-tetrahydro-1′H-spiro[cyclobutane-1,2′-dipyrido[1,2-b:2′,1′-f][1,2,4]triazine]-6′,8′-dione]",15.7
10,"CN1C(=O)c2c(O)c(=O)ccn2N2C1CCC1(CC(F)(F)C1)C2c1ccccc1 (single isomer, unassigned) [Compound 74C, 3,3-difluoro-7′-hydroxy-5′-methyl-1′-phenyl-3′,4′,4a′,5′-tetrahydro-1′H-spiro[cyclobutane-1,2′-dipyrido[1,2-b:2′,1′-f][1,2,4]triazine]-6′,8′-dione]",32.5
11,"CN1C(=O)c2c(O)c(=O)ccn2N2C1CCC1(CC(F)(F)C1)C2c1ccccc1 (single isomer, unassigned) [Compound 74D, 3,3-difluoro-7′-hydroxy-5′-methyl-1′-phenyl-3′,4′,4a′,5′-tetrahydro-1′H-spiro[cyclobutane-1,2′-dipyrido[1,2-b:2′,1′-f][1,2,4]triazine]-6′,8′-dione]",442
12,"CN1C(=O)c2c(O)c(=O)ccn2N2C1CCC1(CCCC(F)(F)C1)C2c1ccccc1 (single isomer, unassigned) [Compound 75A, 3,3-difluoro-7′-hydroxy-5′-methyl-1′-phenyl-3′,4′,4a′,5′-tetrahydro-1′H-spiro[cyclohexane-1,2′-dipyrido[1,2-b:2′,1′-f][1,2,4]triazine]-6′,8′-dione]",> 810
13,"CN1C(=O)c2c(O)c(=O)ccn2N2C1CCC1(CCCC(F)(F)C1)C2c1ccccc1 (single isomer, unassigned) [Compound 75B, 3,3-difluoro-7′-hydroxy-5′-methyl-1′-phenyl-3′,4′,4a′,5′-tetrahydro-1′H-spiro[cyclohexane-1,2′-dipyrido[1,2-b:2′,1′-f][1,2,4]triazine]-6′,8′-dione]",8
14,"CN1C(=O)c2c(O)c(=O)ccn2N2C1CCC1(CCCC(F)(F)C1)C2c1ccccc1 (single isomer, unassigned) [Compound 75C, 3,3-difluoro-7′-hydroxy-5′-methyl-1′-phenyl-3′,4′,4a′,5′-tetrahydro-1′H-spiro[cyclohexane-1,2′-dipyrido[1,2-b:2′,1′-f][1,2,4]triazine]-6′,8′-dione]",140
15,"CN1C(=O)c2c(O)c(=O)ccn2N2C1CCC1(CCCC(F)(F)C1)C2c1ccccc1 (single isomer, unassigned) [Compound 75D, 3,3-difluoro-7′-hydroxy-5′-methyl-1′-phenyl-3′,4′,4a′,5′-tetrahydro-1′H-spiro[cyclohexane-1,2′-dipyrido[1,2-b:2′,1′-f][1,2,4]triazine]-6′,8′-dione]",19.2
16,"CCN1C(=O)c2c(O)c(=O)ccn2N2C1CCC1(CCC(F)(F)CC1)C2c1ccccc1 (single isomer, unassigned) [Compound 76A]",> 810
17,"CCN1C(=O)c2c(O)c(=O)ccn2N2C1CCC1(CCC(F)(F)CC1)C2c1ccccc1 (single isomer, unassigned) [Compound 76B]",2
18,"Cc1cccc(F)c1C1C(CC(F)(F)F)CCC2N(C)C(=O)c3c(O)c(=O)ccn3N12 (single isomer, unassigned) [Compound 77A, 1-(2-fluoro-6-methylphenyl)-7-hydroxy-5-methyl-2-(2,2,2-trifluoroethyl)-1,2,3,4,4a,5-hexahydrodipyrido[1,2-b:2′,1′-f][1,2,4]triazine-6,8-dione]",3.3
19,"Cc1cccc(F)c1C1C(CC(F)(F)F)CCC2N(C)C(=O)c3c(O)c(=O)ccn3N12 (single isomer, unassigned) [Compound 77B, 1-(2-fluoro-6-methylphenyl)-7-hydroxy-5-methyl-2-(2,2,2-trifluoroethyl)-1,2,3,4,4a,5-hexahydrodipyrido[1,2-b:2′,1′-f][1,2,4]triazine-6,8-dione]",3.2
20,"Cc1cccc(F)c1C1C(CC(F)(F)F)CCC2N(C)C(=O)c3c(O)c(=O)ccn3N12 (single isomer, unassigned) [Compound 77C, 1-(2-fluoro-6-methylphenyl)-7-hydroxy-5-methyl-2-(2,2,2-trifluoroethyl)-1,2,3,4,4a,5-hexahydrodipyrido[1,2-b:2′,1′-f][1,2,4]triazine-6,8-dione]",> 810
21,"Cc1cccc(F)c1C1C(CC(F)(F)F)CCC2N(C)C(=O)c3c(O)c(=O)ccn3N12 (single isomer, unassigned) [Compound 77D, 1-(2-fluoro-6-methylphenyl)-7-hydroxy-5-methyl-2-(2,2,2-trifluoroethyl)-1,2,3,4,4a,5-hexahydrodipyrido[1,2-b:2′,1′-f][1,2,4]triazine-6,8-dione]",1.9
22,"CN1C(=O)c2c(O)c(=O)ccn2N2C(c3ccccc3)C(CCC(F)(F)F)CCC12C (single isomer, unassigned) [Compound 78A, 7-hydroxy-4a,5-dimethyl-1-phenyl-2-(3,3,3-trifluoropropyl)-1,2,3,4,4a,5-hexahydrodipyrido[1,2-b:2′,1′-f][1,2,4]triazine-6,8-dione]",> 810
23,"CN1C(=O)c2c(O)c(=O)ccn2N2C(c3ccccc3)C(CCC(F)(F)F)CCC12C (single isomer, unassigned) [Compound 78B, 7-hydroxy-4a,5-dimethyl-1-phenyl-2-(3,3,3-trifluoropropyl)-1,2,3,4,4a,5-hexahydrodipyrido[1,2-b:2′,1′-f][1,2,4]triazine-6,8-dione]",2.9
24,"Cc1ccccc1C1C(CC(F)(F)F)CC(C)C2N(C)C(=O)c3c(O)c(=O)ccn3N12 (single isomer, unassigned) [Compound 79A, 7-hydroxy-4,5-dimethyl-1-(o-tolyl)-2-(2,2,2-trifluoroethyl)-1,2,3,4,4a,5-hexahydrodipyrido[1,2-b:2′,1′-f][1,2,4]triazine-6,8-dione]",83.8
25,"Cc1ccccc1C1C(CC(F)(F)F)CC(C)C2N(C)C(=O)c3c(O)c(=O)ccn3N12 (single isomer, unassigned) [Compound 79B, 7-hydroxy-4,5-dimethyl-1-(o-tolyl)-2-(2,2,2-trifluoroethyl)-1,2,3,4,4a,5-hexahydrodipyrido[1,2-b:2′,1′-f][1,2,4]triazine-6,8-dione]",2.3
26,"Cc1c(F)cccc1C1C(CC(F)(F)F)CCC2N(C)C(=O)c3c(O)c(=O)ccn3N12 (single isomer, unassigned) [Compound 80A, 1-(3-fluoro-2-methylphenyl)-7-hydroxy-5-methyl-2-(2,2,2-trifluoroethyl)-1,2,3,4,4a,5-hexahydrodipyrido[1,2-b:2′,1′-f][1,2,4]triazine-6,8-dione]",59.6
27,"Cc1c(F)cccc1C1C(CC(F)(F)F)CCC2N(C)C(=O)c3c(O)c(=O)ccn3N12 (single isomer, unassigned) [Compound 80B, 1-(3-fluoro-2-methylphenyl)-7-hydroxy-5-methyl-2-(2,2,2-trifluoroethyl)-1,2,3,4,4a,5-hexahydrodipyrido[1,2-b:2′,1′-f][1,2,4]triazine-6,8-dione]",3.3
